Experimental data reported in US9308198B2, “Treatment, prevention, and reversal of alcohol-induced brain disease” (priority 2006, dated 2016).

Key:
cerebellar ATP content = conditions: rat, in vivo
Procedure: Studies were done to characterize the degree to which ethanol-associated impairments in receptor binding were associated with reductions in insulin and IGF-I receptor tyrosine kinase activities, and insulin and IGF-I receptor protein expression. Receptor protein levels were measured by Western blotting with digital image densitometry.

[1] = tested on: acetylcholinesterase (AChE) mRNA; conditions: ethanol-exposed pup cerebellar tissue vs control
Procedure: (§1) Total RNA was isolated from brain tissue using TRIzol reagent (Invitrogen, Carlsbad, Calif.) according to the manufacturer's protocol. RNA concentrations and purity were determined from the absorbances measured at 260 nm and 280 nm. RNA (2 μg) was reverse transcribed using the AMV First Strand cDNA synthesis kit (Roche Diagnostics Corporation, Indianapolis, Ind.) and random oligodeoxynucleotide primers. Real time quantitative RT-PCR was used to measure mRNA levels of insulin, IGF-I, and IGF-II growth factors, their corresponding receptors, neuronal (Hu), astrocytic (glial fibrillary acidic protein; GFAP), oligodendroglial (myelin-associated glycoprotein-1; MAG-1), microglial (AIF1), and endothelial (endothelin-1; ET-1) cell genes, acetyl cholinesterase (AChE), and choline acetyltransferase (ChAT). Ribosomal 18S RNA levels measured in parallel reactions were used to calculate relative abundance of the mRNA transcripts (Myers et al., Trends Biochem. Sci. 19:289 (1994); Baltensperger et al., Science 260:1950 (1993)). PCR amplifications were performed in 25 μl reactions containing cDNA generated from 2.5 ng of original RNA template, 300 nM each of gene specific forward and reverse primer (Table 1), and 12.5 μl of 2× QuantiTect SYBR Green PCR Mix (Qiagen Inc, Valencia, Calif.). […]

[2] = tested on: choline acetyltransferase (ChAT) mRNA; conditions: ethanol-exposed pup cerebellar tissue vs control
Procedure: as §1

cerebellar cortex = conditions: rat, in vivo
Description: (§2) Male (˜200 g) Long Evans rats (Charles River Laboratories, Cambridge, Mass.) were fed isocaloric liquid diets (BioServ, Frenchtown, N.J.) in which ethanol comprised 0% or 37% of the caloric content (9.25% v/v) for 6 weeks (Yeon et al., Hepatology 38:703 (2003)). A chow fed control group was also studied. Rats were monitored daily to ensure equivalent food consumption and maintenance of body weight. Upon sacrifice, the brains were harvested and either immersion fixed in Histochoice fixative (Amresco Corp., Solon, Ohio) for paraffin embedding, or sliced fresh to micro-dissect temporal cortex, hypothalamus, and cerebellum. The fresh tissue blocks were snap frozen in a dry ice-methanol bath and stored at −80° C. for mRNA and protein studies.
(§3) Fixed brains were sectioned in the coronal plane along standardized landmarks and embedded in paraffin. Paraffin-embedded sections (8 μm thick) were stained with hematoxylin and eosin, or immunostained with monoclonal antibodies to 8-hydroxy-deoxyguanosine (8-OHdG) (Oxis Research) or 4-hydroxynonenol (HNE) (Chemicon International, Temecula, Calif.) to detect DNA damage and lipid peroxidation, respectively. Prior to immunostaining, deparaffinized, re-hydrated sections were treated with 0.1 mg/ml saponin in phosphate buffered saline (10 mM sodium phosphate, 0.9% NaCl, pH 7.4; PBS) for 20 minutes at room temperature, followed by 3% hydrogen peroxide in methanol for 10 minutes to quench endogenous peroxidase activity, and then 30 minutes in SuperBlock-TBS (Pierce Chemical Co., Rockford, Ill.) at room temperature to block non-specific binding sites. The sections were incubated overnight at 4° C. with 0.5-1 μg/ml of primary antibody. Immunoreactivity was detected with biotinylated secondary antibody, avidin biotin horseradish peroxidase complex (ABC) reagents, and diaminobenzidine as the chromogen (Vector Laboratories, Burlingame, Calif.) (Lam et al. J. Biol. Chem. 269:20648 (1994)). The tissue sections were counterstained with hematoxylin and examined by light microscopy.

[3] = tested on: lipid peroxidation and DNA damage in brain; conditions: rat, in vivo
Description: as §2, §3

AChE mRNA = conditions: chronic ethanol feeding; temporal lobe, hypothalamus, cerebellum
Description: as §2
(§4) Total RNA was isolated from brain tissue using TRIzol reagent (Invitrogen, Carlsbad, Calif.) according to the manufacturer's protocol. RNA concentrations and purity were determined from the absorbances measured at 260 nm and 280 nm. […] Real time quantitative RT-PCR was used to measure mRNA levels of insulin, IGF-I, and IGF-II growth factors, their corresponding receptors, neuronal (Hu), astrocytic (glial fibrillary acidic protein; GFAP), oligodendroglial (myelin-associated glycoprotein-1; MAG-1), microglial (AIF1), and endothelial (endothelin-1; ET-1) cell genes, acetyl cholinesterase (AChE), and choline acetyltransferase (ChAT). […]

ChAT mRNA = conditions: chronic ethanol feeding; hypothalamus and cerebellum
Description: as §2, §4

IGF-I receptors = conditions: pup cerebellar membrane extracts, chronic gestational ethanol exposure relative to control; not dose-dependent
Procedure: Fresh frozen tissue (˜100 mg) was homogenized in 5 volumes of NP-40 lysis buffer (50 mM Tris-HCl, pH 7.5, 1% NP-40, 150 mM NaCl, 1 mM EDTA, 2 mM EGTA) containing protease inhibitors (1 mM PMSF, 0.1 mM TPCK, 1 μg/ml aprotinin, 1 μg/ml pepstatin A, 0.5 μg/ml leupeptin, 1 mM NaF, 1 mM Na4P2O7). Protein concentrations were determined using the bicinchoninic acid (BCA) assay (Pierce, Rockford, Ill.). Exploratory studies determined the amounts of protein and concentrations of radiolabeled ligand required to achieve 20% specific binding. Insulin receptor binding assays were performed using 100 μg protein. IGF-I binding assays required 25 μg protein per sample, and IGF-II receptor binding assays were optimized using 10 μg protein. […]
All reactions were performed in 1.5 ml Eppendorff tubes, and the incubations were performed at 4° C. for 16 hours with gentle platform agitation. […] The samples were counted for 1 minute in an LKB CompuGamma CS Gamma counter. Specific binding was calculated by subtracting fmol of non-specific binding, i.e., amount bound in the presence of cold ligand, from the total fmol bound (absence of unlabeled competitive ligand). The results were analyzed and plotted using the GraphPad Prism 4 software (GraphPad Software, Inc., San Diego, Calif.).

[4] = tested on: cerebellar membrane cholesterol content; conditions: 8% ethanol diet group, pups
Procedure: Cholesterol content was measured using the Amplex Red assay kit (Molecular Probes, Eugene, Oreg.) according to the manufacturer's protocol. […] Briefly, tissue homogenates were prepared in RIPA buffer as described above. Samples, serially diluted in 1× reaction buffer (provided with the kit), were incubated with 150 μM Amplex Red reagent, 1 U/ml horseradish peroxidase, 1 U/ml cholesterol oxidase, and 0.1 U/ml cholesterol esterase in final reaction volumes of 100 μl. Reactions were incubated at 37° C. for 30 minutes and fluorescence was measured in a Fluorocount microplate reader (Packard Instrument Co., Meriden, Conn.) (Ex 560 nm/Em 590 nm). A standard curve was simultaneously generated using a cholesterol standard provided with the kit. The levels of cholesterol were normalized to protein concentration in the samples.

CCO [ethanol]
cerebellar ATP content (cerebellar ATP content): dose-dependent progressive reductions | AChE mRNA expression [1]: increases | ChAT mRNA expression [2]: significant reductions | structural abnormalities in the cerebellar cortex (cerebellar cortex): loss of Purkinje cells and reduced densities of cells within the internal granule layer | 8-OHdG immunoreactivity (DNA damage) [3]: only detected in scattered cells | HNE immunoreactivity (lipid peroxidation) [3]: conspicuously increased cellular labeling | expression of AChE (AChE mRNA): did not significantly alter | ChAT mRNA expression (ChAT mRNA): significantly reduced | impairment of IGF-I receptor binding (IGF-I receptors): ~80% | reduction of cerebellar membrane cholesterol content relative to control [4]: ~50%
